Reference: patent US20240360165A1, “INHIBITORS OF CYCLIN DEPENDENT KINASE 7 (CDK7)” (Syros Pharmaceuticals, Inc., priority 2016, published 2024)
Where two headings read alike, the source gives them in different places.

Key:
[1] = target: CDK7/Cyclin H/MAT1 complex (Homo sapiens, UniProt P50613); test: CDK7 inhibition assay (Caliper/LabChip EZ Reader kinase assay); format: biochemical; settings: Table 1; CDK7/Cyclin H/MAT1 6 nM, ATP 2 mM, 35 min at 27° C.
In short: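 A Perkin Elmer Caliper/LabChip EZ Reader (Waltham, MA) platform served as the basis for this CDK7 kinase inhibition assay. The work was carried out by Biortus Biosciences, located in Jiangyin, Jiangsu Province, P.R. of China. Each CDK studied had its own kinase assay, and compounds were evaluated for their ability to block CDK7 activity.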

[2] = target: T1, CDK12 (aa686-1082)/Cyclin K complex (Homo sapiens, UniProt Q9NYV4); test: CDK12 inhibition assay (Caliper/LabChip EZ Reader kinase assay); format: biochemical; settings: Table 1; CDK12 (aa686-1082)/Cyclin K 50 nM, ATP 2 mM, 3 hr at 27° C.
T1 construct: CDK12 (aa686-1082)/Cyclin K complex
T1 sequence (Q9NYV4 686-1082, species assumed): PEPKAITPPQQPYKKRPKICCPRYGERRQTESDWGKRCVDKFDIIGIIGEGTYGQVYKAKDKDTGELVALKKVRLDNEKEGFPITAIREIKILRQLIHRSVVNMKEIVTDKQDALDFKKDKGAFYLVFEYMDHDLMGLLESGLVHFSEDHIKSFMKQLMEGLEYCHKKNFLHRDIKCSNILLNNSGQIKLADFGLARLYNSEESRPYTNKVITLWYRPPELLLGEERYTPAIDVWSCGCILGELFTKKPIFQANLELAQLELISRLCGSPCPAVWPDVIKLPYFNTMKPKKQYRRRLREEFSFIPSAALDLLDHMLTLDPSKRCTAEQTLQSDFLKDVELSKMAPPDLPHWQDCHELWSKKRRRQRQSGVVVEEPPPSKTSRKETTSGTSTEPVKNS
T1 sequence (O75909 whole entry partner, species assumed, the tested form may be a part): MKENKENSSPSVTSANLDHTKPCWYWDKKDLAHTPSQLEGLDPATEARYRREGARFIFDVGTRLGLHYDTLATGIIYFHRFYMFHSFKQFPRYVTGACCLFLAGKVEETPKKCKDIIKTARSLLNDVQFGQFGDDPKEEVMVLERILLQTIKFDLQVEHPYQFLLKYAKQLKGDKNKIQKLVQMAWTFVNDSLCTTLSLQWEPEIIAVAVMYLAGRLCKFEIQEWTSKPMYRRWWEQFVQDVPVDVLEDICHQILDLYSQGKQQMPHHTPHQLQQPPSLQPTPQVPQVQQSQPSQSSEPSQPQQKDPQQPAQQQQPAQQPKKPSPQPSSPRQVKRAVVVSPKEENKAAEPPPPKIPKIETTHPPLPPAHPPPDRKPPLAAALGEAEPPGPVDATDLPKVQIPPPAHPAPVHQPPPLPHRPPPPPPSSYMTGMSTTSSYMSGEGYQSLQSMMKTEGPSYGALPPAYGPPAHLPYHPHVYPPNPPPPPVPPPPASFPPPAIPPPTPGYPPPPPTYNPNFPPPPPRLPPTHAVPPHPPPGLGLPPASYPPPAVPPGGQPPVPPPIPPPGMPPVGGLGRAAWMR

HCC70 cells = test: Inhibition of proliferation of HCC70 cells (CyQUANT Direct Cell Proliferation Assay, 72 hour); format: cell-based, human; settings: read-out: Inhibition of Proliferation of HCC70 Cells (calculated IC50)
Method: HCC70 cells are a cell line derived from human triple negative breast cancer. […] Known CDK inhibitors dinaciclib or N-((1S,3R)-3-((5-chloro-4-(1H-indol-3-yl) pyrimidin-2-yl)amino)cyclohexyl)-5-((E)-4-(dimethylamino)but-2-enamido)picolinamide and triptolide were used as positive controls. […] The cells were cultured at 37° C. in a humidified chamber in the presence of 5% CO2. Proliferation assays were conducted over a 72 hour time period. CyQUANT® Direct Cell Proliferation Assay (Life Technologies, Chicago, IL USA) was used to assess the anti-proliferative effects of the compounds following manufacturer's directions and utilizing the reagents supplied with the CyQUANT® Direct Cell kit.

CDK9/Cyclin T1 complex = CDK9/Cyclin T1 complex (Homo sapiens, UniProt P50750); test: CDK9 inhibition assay (Caliper/LabChip EZ Reader kinase assay); format: biochemical; settings: Table 1; CDK9/Cyclin T1 8 nM, ATP 2 mM, 15 min at 27° C.
Chain of CDK9/Cyclin T1 complex (P50750 whole entry, species assumed): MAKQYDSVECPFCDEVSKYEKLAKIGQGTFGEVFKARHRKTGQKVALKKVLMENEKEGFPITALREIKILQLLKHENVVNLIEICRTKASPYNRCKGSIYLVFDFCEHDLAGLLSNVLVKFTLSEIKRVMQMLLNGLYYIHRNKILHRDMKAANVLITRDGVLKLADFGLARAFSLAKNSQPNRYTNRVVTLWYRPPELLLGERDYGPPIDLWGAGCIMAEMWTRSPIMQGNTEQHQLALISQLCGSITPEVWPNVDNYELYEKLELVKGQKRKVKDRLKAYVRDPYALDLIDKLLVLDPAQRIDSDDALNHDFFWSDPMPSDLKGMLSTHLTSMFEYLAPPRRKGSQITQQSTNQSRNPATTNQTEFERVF
Chain of CDK9/Cyclin T1 complex (O60563 whole entry partner, species assumed): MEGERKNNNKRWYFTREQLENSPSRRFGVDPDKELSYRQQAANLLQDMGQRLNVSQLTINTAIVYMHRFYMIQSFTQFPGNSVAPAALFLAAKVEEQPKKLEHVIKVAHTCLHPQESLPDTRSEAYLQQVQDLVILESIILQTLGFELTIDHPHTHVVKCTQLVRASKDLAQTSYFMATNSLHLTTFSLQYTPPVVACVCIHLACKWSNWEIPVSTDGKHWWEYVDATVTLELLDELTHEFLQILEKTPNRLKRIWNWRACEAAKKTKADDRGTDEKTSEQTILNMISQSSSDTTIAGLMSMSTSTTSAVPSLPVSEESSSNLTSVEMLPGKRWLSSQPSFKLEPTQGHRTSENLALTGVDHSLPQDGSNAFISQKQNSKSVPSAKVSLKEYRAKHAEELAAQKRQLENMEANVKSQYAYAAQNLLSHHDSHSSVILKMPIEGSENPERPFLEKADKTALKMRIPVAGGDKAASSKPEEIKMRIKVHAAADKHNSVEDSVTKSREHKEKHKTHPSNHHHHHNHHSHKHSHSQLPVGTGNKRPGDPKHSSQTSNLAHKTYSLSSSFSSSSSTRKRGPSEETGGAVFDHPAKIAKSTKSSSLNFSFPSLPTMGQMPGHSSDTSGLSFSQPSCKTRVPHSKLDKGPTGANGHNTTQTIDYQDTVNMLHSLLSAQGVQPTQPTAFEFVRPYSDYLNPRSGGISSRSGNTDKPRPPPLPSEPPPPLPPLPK
In short: (§1)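 Caliper/LabChip EZ Reader mobility-shift assays. CDK9/Cyclin T1 at 8 nM with 2 μM 5-FAM-CDK9tide peptide and 10 mM MgCl2; CDK2/Cyclin E1 at 0.5 nM with 2 μM 5-FAM-CDK7tide and 2 mM MgCl2.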

CDK2/Cyclin E1 complex = CDK2/Cyclin E1 complex (Homo sapiens, UniProt P24941); test: CDK2 inhibition assay (Caliper/LabChip EZ Reader kinase assay); format: biochemical; settings: Table 1; CDK2/Cyclin E1 0.5 nM, ATP 2 mM, 35 min at 27° C.
In short: as §1

A673 cells = test: Inhibition of proliferation of A673 cells (CyQUANT, 72 hour); format: cell-based, human; settings: A673 cells, 72 hour, CyQUANT, read-out: Inhibition of Proliferation of A673 Cells (calculated IC50)
In short: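 Human Ewing's sarcoma A673 cells in DMEM with 10% FBS and 1 mM sodium pyruvate, 37° C, 5% CO2, treated 72 h with compound from 4 μM to […] (0.5 log dilutions). Antiproliferative effect read by CyQUANT assay.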

Chain of CDK7/Cyclin H/MAT1 complex (P50613 whole entry, species assumed): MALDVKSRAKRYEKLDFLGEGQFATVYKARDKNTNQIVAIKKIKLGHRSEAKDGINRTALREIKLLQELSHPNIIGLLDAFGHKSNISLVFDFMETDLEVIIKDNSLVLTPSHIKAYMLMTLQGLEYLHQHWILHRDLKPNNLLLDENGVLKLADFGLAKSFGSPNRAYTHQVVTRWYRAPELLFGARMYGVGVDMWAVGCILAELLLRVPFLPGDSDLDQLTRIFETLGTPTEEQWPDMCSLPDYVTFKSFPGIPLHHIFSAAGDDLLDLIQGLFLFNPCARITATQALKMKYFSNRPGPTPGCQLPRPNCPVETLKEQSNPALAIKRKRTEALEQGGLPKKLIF
Chain of CDK7/Cyclin H/MAT1 complex (P51946 whole entry partner, species assumed): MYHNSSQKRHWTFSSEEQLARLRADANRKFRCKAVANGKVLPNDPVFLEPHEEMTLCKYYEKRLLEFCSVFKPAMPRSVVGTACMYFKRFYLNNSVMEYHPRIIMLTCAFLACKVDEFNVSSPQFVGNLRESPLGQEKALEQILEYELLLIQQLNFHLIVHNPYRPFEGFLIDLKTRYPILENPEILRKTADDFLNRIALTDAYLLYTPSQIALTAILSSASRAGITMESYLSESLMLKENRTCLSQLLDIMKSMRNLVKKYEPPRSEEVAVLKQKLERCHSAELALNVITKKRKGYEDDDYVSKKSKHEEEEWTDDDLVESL
Chain of CDK7/Cyclin H/MAT1 complex (P51948 whole entry partner, species assumed): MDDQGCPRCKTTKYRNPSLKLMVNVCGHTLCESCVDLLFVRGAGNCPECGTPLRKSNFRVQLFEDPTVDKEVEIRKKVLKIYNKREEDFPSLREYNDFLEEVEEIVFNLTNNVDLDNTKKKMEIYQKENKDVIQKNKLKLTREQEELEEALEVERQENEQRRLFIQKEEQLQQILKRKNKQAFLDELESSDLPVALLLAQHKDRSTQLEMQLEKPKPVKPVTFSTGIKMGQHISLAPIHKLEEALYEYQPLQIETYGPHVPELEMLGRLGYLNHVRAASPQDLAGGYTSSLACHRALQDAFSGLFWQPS

Structure (SMILES) | IC50 [1] | IC50 [2] | IC50 (CDK9/Cyclin T1 complex) | IC50 (CDK2/Cyclin E1 complex) | IC50 (HCC70 cells) | IC50 (HCC70 cells; Homo sapiens, HCC70, 72 h) | IC50 (A673 cells; Homo sapiens, A673, 72 h) | IC50 (A673 cells)
N#Cc1ccc2c(-c3nc(N[C@@H]4CNCC[C@H]4O)ncc3C(F)(F)F)c[nH]c2c1 [Compound 355] | 20 to 200 nM | 200 to 5000 nM | > 5000 nM | > 5000 nM | – | 100 to 1000 nM | – | –
FC(F)(F)c1cnc(N[C@H]2CCCNC2)nc1-c1c[nH]c2cc(-c3ccc4cn[nH]c4c3)ccc12 [Compound 329] | 20 to 200 nM | 200 to 5000 nM | – | – | – | 100 to 1000 nM | – | –
CC(C)S(=O)(=O)c1ccc2c(-c3nc(N[C@H]4CCCNC4)ncc3C(F)(F)F)c[nH]c2c1 [Compound 346, 4-(6-isopropylsulfonyl-1H-indol-3-yl)-N-[(3S)-3-piperidyl]-5-(trifluoromethyl) pyrimidin-2-amine] | 20 to 200 nM | 200 to 5000 nM | 200 to 5000 nM | 200 to 5000 nM | – | 100 to 1000 nM | – | –
Nc1nc2c(-c3ccc4c(-c5nc(N[C@H]6CCCNC6)ncc5C(F)(F)F)c[nH]c4c3)cccc2s1 [Compound 312] | 20 to 200 nM | 200 to 5000 nM | – | – | – | 100 to 1000 nM | – | –
N#Cc1ccc2c(-c3nc(N[C@H]4CCCNC4)ncc3SC(F)F)c[nH]c2c1 [Compound 361, 3-[5-(difluoromethylsulfanyl)-2-[[(3S)-3-piperidyl]amino]pyrimidin-4-yl]-1H-indole-6-carbonitrile] | 20 to 200 nM | 200 to 5000 nM | 200 to 5000 nM | > 5000 nM | – | 100 to 1000 nM | – | –
O=C1CCc2ccc(-c3ccc4c(-c5nc(N[C@H]6CCCNC6)ncc5C(F)(F)F)c[nH]c4c3)cc2N1 [Compound 334] | 20 to 200 nM | 200 to 5000 nM | 200 to 5000 nM | 200 to 5000 nM | 100 to 1000 nM | – | – | –
N#Cc1cc(-c2ccc3c(-c4nc(N[C@H]5CCCNC5)ncc4C(F)(F)F)c[nH]c3c2)ccc1O [Compound 315] | 20 to 200 nM | 200 to 5000 nM | – | – | 1000 to 5000 nM | – | – | –
FC(F)(F)c1cnc(NC2CCCNC2)nc1-c1c[nH]c2cc(C=Cc3ccccc3)ccc12 (centres unmarked) [Compound 317] | 20 to 200 nM | 200 to 5000 nM | – | – | – | 1000 to 5000 nM | – | –
Cn1ncc2ccc(-c3ccc4c(-c5nc(N[C@H]6CCCNC6)ncc5C(F)(F)F)c[nH]c4c3)cc21 [Compound 337] | 20 to 200 nM | 200 to 5000 nM | – | – | 100 to 1000 nM | – | – | –
CCOc1ccccc1-c1ccc2c(-c3nc(NC4CCCNC4)ncc3C(F)(F)F)c[nH]c2c1 (centres unmarked) [Compound 327] | 20 to 200 nM | 200 to 5000 nM | – | – | – | 100 to 1000 nM | – | –
NS(=O)(=O)c1cccc(-c2ccc3c(-c4nc(N[C@H]5CCCNC5)ncc4C(F)(F)F)c[nH]c3c2)c1 [Compound 326] | 20 to 200 nM | 200 to 5000 nM | – | – | 100 to 1000 nM | – | – | –
FC(F)(F)c1cnc(N[C@H]2CCCNC2)nc1-c1c[nH]c2cc(-c3ccc4ccncc4c3)ccc12 [Compound 325] | 20 to 200 nM | 200 to 5000 nM | – | – | 100 to 1000 nM | – | – | –
Cn1cc(-c2ccc3c(-c4nc(N[C@H]5CCCNC5)ncc4C(F)(F)F)c[nH]c3c2)c2cnc(C(F)(F)F)cc21 [Compound 320] | 20 to 200 nM | 200 to 5000 nM | – | – | – | 1000 to 5000 nM | – | –
FC(F)(F)c1cc2[nH]cc(-c3ccc4c(-c5nc(N[C@H]6CCCNC6)ncc5C(F)(F)F)c[nH]c4c3)c2cn1 [Compound 319] | 20 to 200 nM | 200 to 5000 nM | – | – | 1000 to 5000 nM | – | – | –
NS(=O)(=O)c1ccc(-c2ccc3c(-c4nc(N[C@H]5CCCNC5)ncc4C(F)(F)F)c[nH]c3c2)cc1 [Compound 331] | 20 to 200 nM | 200 to 5000 nM | – | – | 100 to 1000 nM | – | – | –
CC(C)(O)Cn1cc(-c2ccc3c(-c4nc(N[C@H]5CCCNC5)ncc4C(F)(F)F)c[nH]c3c2)cn1 [Compound 214, 2-methyl-1-[4-[3-[2-[[(3S)-3-piperidyl]amino]-5-(trifluoromethyl)pyrimidin-4-yl]-1H-indol-6-yl]pyrazol-1-yl] propan-2-ol] | 20 to 200 nM | 200 to 5000 nM | 200 to 5000 nM | 200 to 5000 nM | – | – | 20 to 200 nM | –
CC[C@@H]1CC[C@H](Nc2ncc(C(F)(F)F)c(-c3c[nH]c4ccccc34)n2)CN1 [Compound 211] | 20 to 200 nM | 200 to 5000 nM | 200 to 5000 nM | 200 to 5000 nM | – | – | 20 to 200 nM | –

The next lines start with results.

IC50 [1] | IC50 [2] | IC50 (CDK9/Cyclin T1 complex) | IC50 (CDK2/Cyclin E1 complex) | Structure (SMILES) | IC50 (HCC70 cells) | IC50 (HCC70 cells; Homo sapiens, HCC70, 72 h) | IC50 (A673 cells; Homo sapiens, A673, 72 h) | IC50 (A673 cells)
20 to 200 nM | 200 to 5000 nM | – | – | OCCc1cccc(-c2ccc3c(-c4nc(N[C@H]5CCCNC5)ncc4C(F)(F)F)c[nH]c3c2)c1 [Compound 324] | 100 to 1000 nM | – | – | –
20 to 200 nM | 200 to 5000 nM | > 5000 nM | 200 to 5000 nM | FC(F)(F)c1cnc(N[C@H]2CCCNC2)nc1-c1c[nH]c2cc(-c3cccc4cnccc34)ccc12 [Compound 344] | 100 to 1000 nM | – | – | –
< 20 nM | 200 to 5000 nM | 200 to 5000 nM | 200 to 5000 nM | CC1(C)CNC[C@@H](Nc2ncc(Cl)c(-c3c[nH]c4c(S(C)(=O)=O)c(C#N)ccc34)n2)C1 [Compound 382, 3-[5-chloro-2-[[(3S)-5,5-dimethyl-3-piperidyl]amino]pyrimidin-4-yl]-7-methylsulfonyl-1H-indole-6-carbonitrile] | – | < 100 nM | – | –
20 to 200 nM | 200 to 5000 nM | 200 to 5000 nM | 200 to 5000 nM | FC(F)(F)c1cnc(N[C@H]2CCCNC2)nc1-c1c[nH]c2cc(-c3ccc4ncsc4c3)ccc12 [Compound 343] | 100 to 1000 nM | – | – | –
20 to 200 nM | > 5000 nM | > 5000 nM | > 5000 nM | CCc1cnc(N[C@H]2CCCNC2)nc1-c1c[nH]c2c(S(=O)(=O)C(C)C)cccc12 [Compound 356] | 100 to 1000 nM | – | – | –
< 20 nM | 200 to 5000 nM | 200 to 5000 nM | 200 to 5000 nM | FC(F)(F)c1cnc(N[C@H]2CCCNC2)nc1-c1c[nH]c2cc(-c3ccc4[nH]cnc4c3)ccc12 [Compound 313] | 100 to 1000 nM | – | – | –
< 20 nM | 200 to 5000 nM | 200 to 5000 nM | 200 to 5000 nM | Cc1noc(C)c1-c1ccc2c(-c3nc(N[C@H]4CCCNC4)ncc3C(F)(F)F)c[nH]c2c1 [Compound 330] | < 100 nM | – | – | –
< 20 nM | 200 to 5000 nM | 200 to 5000 nM | 200 to 5000 nM | FC(F)(F)c1cnc(N[C@H]2CCCNC2)nc1-c1c[nH]c2cc(-c3nccs3)ccc12 [Compound 332] | < 100 nM | – | – | –
< 20 nM | 200 to 5000 nM | 200 to 5000 nM | 200 to 5000 nM | CS(=O)(=O)Cc1ccc2c(-c3nc(N[C@H]4CCCNC4)ncc3C(F)(F)F)c[nH]c2c1 [Compound 219, 4-[6-(methylsulfonylmethyl)-1H-indol-3-yl]-N-[(3S)-3-piperidyl]-5-(trifluoromethyl) pyrimidin-2-amine] | – | – | 20 to 200 nM | –
< 20 nM | 200 to 5000 nM | 200 to 5000 nM | 200 to 5000 nM | CSc1cnc(N[C@H]2CCCNC2)nc1-c1c[nH]c2cc(C#N)ccc12 [Compound 272, 3-[5-methylsulfanyl-2-[[(3S)-3-piperidyl]amino]pyrimidin-4-yl]-1H-indole-6-carbonitrile] | – | – | 20 to 200 nM | –
< 20 nM | 20 to 200 nM | 200 to 5000 nM | 20 to 200 nM | CNC(=O)C1CNCC(Nc2ncc(C(F)(F)F)c(-c3c[nH]c4ccccc34)n2)C1 (single isomer, unassigned) [Compound 253] | – | – | – | 20 to 200 nM
< 20 nM | 200 to 5000 nM | – | – | Nc1ncc2cccc(-c3ccc4c(-c5nc(N[C@H]6CCCNC6)ncc5C(F)(F)F)c[nH]c4c3)c2n1 [Compound 322] | 100 to 1000 nM | – | – | –
